The supplement of paper PMC6045584
± gives the standard deviation of the averaged measurements.

Assays:
[1] = compound: COc1ccc(-c2cc3c(C)nc(N)nc3n([C@H]3CC[C@H](OCCO)CC3)c2=O)cn1; experiment: surviving fraction relative to DMSO-only wells; higher = less growth inhibition; settings: exposure time: 5 days
Summary of the method: (§1)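 Tumour cell lines were seeded in log phase at 250–500 cells per well into 384-well plates. Starting 24 hours later, inhibitors were present continuously for five days at 0.5, 1, 5, 10, 50, 100, 500 and 1000 nM. Surviving fraction, from CellTiter-Glo luminescence, is normalised to the median of DMSO-only wells. Three screens per line were required, with replicate Pearson r >0.7 and median Z' >0.3 for a line to be kept.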

VORINOSTAT = compound: O=C(CCCCCCC(=O)Nc1ccccc1)NO [VORINOSTAT]; experiment: as above; settings: exposure time: 5 days
Summary of the method: as §1

| Test System | surviving fraction ([1]; 0.5 nM) | surviving fraction ([1]; 1 nM) | surviving fraction ([1]; 5 nM) | surviving fraction ([1]; 10 nM) | surviving fraction ([1]; 50 nM) | surviving fraction ([1]; 100 nM) | surviving fraction ([1]; 500 nM) | surviving fraction ([1]; 1000 nM) | surviving fraction (VORINOSTAT; 0.5 nM) | surviving fraction (VORINOSTAT; 1 nM) | surviving fraction (VORINOSTAT; 5 nM) | surviving fraction (VORINOSTAT; 10 nM) | surviving fraction (VORINOSTAT; 50 nM) | surviving fraction (VORINOSTAT; 100 nM) | surviving fraction (VORINOSTAT; 500 nM) | surviving fraction (VORINOSTAT; 1000 nM) |
| --- | --- | --- | --- | --- | --- | --- | --- | --- | --- | --- | --- | --- | --- | --- | --- | --- |
| SG27 HEADNECK | 1.03 ± 0.11 | 1.02 ± 0.12 | 0.945 ± 0.042 | 0.935 ± 0.11 | 0.834 ± 0.21 | 0.703 ± 0.048 | 0.424 ± 0.0087 | 0.357 ± 0.039 | 1.22 ± 0.15 | 1.05 ± 0.089 | 1.01 ± 0.13 | 1.08 ± 0.048 | 0.989 ± 0.1 | 0.955 ± 0.088 | 0.824 ± 0.097 | 0.755 ± 0.048 |
| SG28 HEADNECK | 1.042 ± 0.0068 | 1.033 ± 0.0092 | 0.998 ± 0.1 | 0.899 ± 0.058 | 0.691 ± 0.036 | 0.621 ± 0.057 | 0.3 ± 0.0047 | 0.242 ± 0.005 | 1.11 ± 0.14 | 1.16 ± 0.17 | 1.066 ± 0.0025 | 1.09 ± 0.018 | 1.03 ± 0.073 | 1.09 ± 0.032 | 0.998 ± 0.081 | 0.809 ± 0.11 |
| SG31 HEADNECK | 0.99 ± 0.13 | 0.942 ± 0.1 | 0.933 ± 0.08 | 0.766 ± 0.057 | 0.637 ± 0.036 | 0.463 ± 0.054 | 0.25 ± 0.014 | 0.162 ± 0.023 | 1.07 ± 0.21 | 1.05 ± 0.27 | 1.02 ± 0.078 | 1.01 ± 0.18 | 1.08 ± 0.12 | 1.04 ± 0.042 | 0.948 ± 0.14 | 0.63 ± 0.027 |
| SG32 HEADNECK | 1.08 ± 0.076 | 1.09 ± 0.38 | 1.02 ± 0.11 | 1.34 ± 0.31 | 1.04 ± 0.095 | 0.982 ± 0.14 | 0.432 ± 0.086 | 0.263 ± 0.044 | 0.938 ± 0.1 | 1.18 ± 0.35 | 1.18 ± 0.2 | 0.933 ± 0.053 | 1.03 ± 0.25 | 0.995 ± 0.21 | 0.697 ± 0.16 | 0.344 ± 0.068 |
| SG43 HEADNECK | 0.954 ± 0.097 | 1 ± 0.041 | 0.747 ± 0.054 | 0.613 ± 0.06 | 0.506 ± 0.046 | 0.427 ± 0.032 | 0.266 ± 0.02 | 0.168 ± 0.007 | 1.08 ± 0.16 | 1.13 ± 0.12 | 0.836 ± 0.23 | 1.03 ± 0.21 | 0.949 ± 0.15 | 1.1 ± 0.033 | 1.04 ± 0.28 | 0.729 ± 0.21 |
| SIHA CERVIX | 1.01 ± 0.032 | 1.02 ± 0.07 | 0.974 ± 0.062 | 0.93 ± 0.063 | 0.656 ± 0.025 | 0.536 ± 0.024 | 0.232 ± 0.0035 | 0.161 ± 0.011 | 0.978 ± 0.05 | 0.965 ± 0.018 | 1.07 ± 0.025 | 1.06 ± 0.13 | 1.2 ± 0.032 | 1.17 ± 0.13 | 1.15 ± 0.035 | 1 ± 0.14 |
| SJSA1 BONE | 1.04 ± 0.035 | 0.976 ± 0.023 | 0.989 ± 0.058 | 0.941 ± 0.027 | 0.743 ± 0.059 | 0.671 ± 0.028 | 0.2 ± 0.011 | 0.116 ± 0.0015 | 0.793 ± 0.037 | 0.946 ± 0.057 | 0.844 ± 0.049 | 0.953 ± 0.067 | 0.844 ± 0.021 | 0.973 ± 0.059 | 0.544 ± 0.035 | 0.672 ± 0.03 |
| SKBR3 BREAST | 0.863 ± 0.093 | 0.88 ± 0.073 | 0.833 ± 0.23 | 0.763 ± 0.15 | 0.434 ± 0.073 | 0.204 ± 0.043 | 0.058 ± 0.0053 | 0.0507 ± 0.0047 | 1 ± 0.11 | 0.996 ± 0.15 | 0.85 ± 0.03 | 0.915 ± 0.17 | 0.98 ± 0.13 | 1.02 ± 0.15 | 0.433 ± 0.046 | 0.179 ± 0.046 |
| SNU475 LIVER | 0.94 ± 0.013 | 0.951 ± 0.022 | 0.891 ± 0.041 | 0.865 ± 0.012 | 0.625 ± 0.014 | 0.404 ± 0.036 | 0.127 ± 0.0076 | 0.0823 ± 0.0011 | 0.9603 ± 0.0081 | 0.944 ± 0.021 | 0.966 ± 0.028 | 0.831 ± 0.037 | 0.968 ± 0.027 | 0.941 ± 0.026 | 0.817 ± 0.018 | 0.556 ± 0.024 |
| SUM44 BREAST | 0.914 ± 0.026 | 0.974 ± 0.044 | 1.01 ± 0.027 | 0.957 ± 0.04 | 0.864 ± 0.043 | 0.747 ± 0.017 | 0.225 ± 0.028 | 0.151 ± 0.0051 | 0.934 ± 0.025 | 0.954 ± 0.037 | 0.951 ± 0.0099 | 1.01 ± 0.086 | 1.07 ± 0.016 | 0.917 ± 0.038 | 0.418 ± 0.031 | 0.294 ± 0.013 |
| SUM149 BREAST | 1.02 ± 0.042 | 1.1 ± 0.1 | 0.963 ± 0.067 | 0.9127 ± 0.0085 | 0.697 ± 0.036 | 0.474 ± 0.03 | 0.161 ± 0.0021 | 0.0763 ± 0.0038 | 1.1 ± 0.12 | 1.03 ± 0.044 | 1.08 ± 0.047 | 0.917 ± 0.038 | 1.06 ± 0.045 | 1.14 ± 0.016 | 0.996 ± 0.066 | 0.71 ± 0.031 |
| SUM149.B1*.S BREAST | 0.985 ± 0.03 | 1.02 ± 0.059 | 1.02 ± 0.032 | 0.995 ± 0.037 | 0.924 ± 0.011 | 0.823 ± 0.03 | 0.475 ± 0.014 | 0.339 ± 0.017 | 1.05 ± 0.026 | 0.971 ± 0.049 | 1.02 ± 0.047 | 0.845 ± 0.031 | 1.06 ± 0.038 | 1.05 ± 0.052 | 0.82 ± 0.038 | 0.523 ± 0.034 |
| SUM159 BREAST | 1.1 ± 0.16 | 1.12 ± 0.18 | 1.1 ± 0.17 | 1.1 ± 0.17 | 1.05 ± 0.074 | 0.839 ± 0.036 | 0.181 ± 0.014 | 0.119 ± 0.006 | 0.975 ± 0.087 | 0.932 ± 0.16 | 0.929 ± 0.16 | 0.928 ± 0.15 | 0.923 ± 0.24 | 0.882 ± 0.28 | 0.926 ± 0.17 | 0.77 ± 0.29 |
| SYO1 SYNOVIAL | 0.961 ± 0.013 | 0.912 ± 0.021 | 0.895 ± 0.061 | 0.825 ± 0.041 | 0.557 ± 0.0083 | 0.386 ± 0.035 | 0.118 ± 0.028 | 0.0698 ± 0.019 | 0.942 ± 0.068 | 0.895 ± 0.083 | 0.945 ± 0.055 | 0.836 ± 0.025 | 1.03 ± 0.088 | 1.057 ± 0.0096 | 0.563 ± 0.022 | 0.222 ± 0.012 |
| T47D BREAST | 0.993 ± 0.043 | 0.975 ± 0.021 | 0.959 ± 0.02 | 0.913 ± 0.013 | 0.638 ± 0.018 | 0.414 ± 0.022 | 0.196 ± 0.0079 | 0.148 ± 0.0018 | 0.967 ± 0.026 | 1.01 ± 0.02 | 1.02 ± 0.042 | 1.013 ± 0.006 | 1.08 ± 0.057 | 1.05 ± 0.043 | 0.785 ± 0.02 | 0.449 ± 0.028 |
| U2OS BONE | 0.98 ± 0.036 | 1.02 ± 0.019 | 0.9927 ± 0.0096 | 0.92 ± 0.05 | 0.794 ± 0.044 | 0.693 ± 0.029 | 0.277 ± 0.0042 | 0.202 ± 0.0051 | 0.934 ± 0.013 | 1.03 ± 0.015 | 0.995 ± 0.026 | 1.01 ± 0.02 | 1.01 ± 0.016 | 1.04 ± 0.04 | 0.909 ± 0.047 | 0.751 ± 0.051 |
| VCAP PROSTATE | 1.01 ± 0.05 | 1.08 ± 0.04 | 1.06 ± 0.14 | 0.983 ± 0.056 | 0.706 ± 0.027 | 0.52 ± 0.023 | 0.161 ± 0.013 | 0.0997 ± 0.016 | 1.09 ± 0.082 | 1.12 ± 0.054 | 1.15 ± 0.015 | 1.17 ± 0.11 | 1.16 ± 0.11 | 0.994 ± 0.022 | 0.449 ± 0.017 | 0.261 ± 0.04 |
| VP229 BREAST | 1.13 ± 0.11 | 1.07 ± 0.062 | 0.948 ± 0.046 | 0.844 ± 0.032 | 0.513 ± 0.078 | 0.383 ± 0.071 | 0.135 ± 0.02 | 0.0757 ± 0.018 | 0.931 ± 0.099 | 1.04 ± 0.054 | 1.02 ± 0.11 | 0.924 ± 0.033 | 1.1 ± 0.086 | 1.04 ± 0.022 | 0.6 ± 0.11 | 0.352 ± 0.058 |
| YAMATO SYNOVIAL | 1.15 ± 0.087 | 1.09 ± 0.066 | 1.01 ± 0.073 | 0.952 ± 0.057 | 0.469 ± 0.062 | 0.355 ± 0.0076 | 0.189 ± 0.014 | 0.272 ± 0.012 | 1.31 ± 0.099 | 0.905 ± 0.031 | 1.19 ± 0.027 | 0.742 ± 0.072 | 1.28 ± 0.068 | 1.16 ± 0.016 | 0.82 ± 0.026 | 0.533 ± 0.038 |
| ZR751 BREAST | 1.13 ± 0.17 | 1.04 ± 0.15 | 0.783 ± 0.13 | 0.708 ± 0.11 | 0.328 ± 0.039 | 0.182 ± 0.038 | 0.091 ± 0.013 | 0.0693 ± 0.012 | 1.22 ± 0.18 | 1.23 ± 0.18 | 1.16 ± 0.12 | 1.08 ± 0.2 | 1.37 ± 0.13 | 1.4 ± 0.19 | 1.23 ± 0.16 | 1.04 ± 0.17 |
